The source made the active and inactive calls. Cut-off read from the data, not from the text of the source, for most assays here: actives have a measured Kd and inactives only a lower limit.
What was measured:
[1] = molecular target: T1, ATP-dependent RNA helicase DHX30 (Homo sapiens, UniProt Q7L2E3)
T1 sequence (Q7L2E3 whole entry): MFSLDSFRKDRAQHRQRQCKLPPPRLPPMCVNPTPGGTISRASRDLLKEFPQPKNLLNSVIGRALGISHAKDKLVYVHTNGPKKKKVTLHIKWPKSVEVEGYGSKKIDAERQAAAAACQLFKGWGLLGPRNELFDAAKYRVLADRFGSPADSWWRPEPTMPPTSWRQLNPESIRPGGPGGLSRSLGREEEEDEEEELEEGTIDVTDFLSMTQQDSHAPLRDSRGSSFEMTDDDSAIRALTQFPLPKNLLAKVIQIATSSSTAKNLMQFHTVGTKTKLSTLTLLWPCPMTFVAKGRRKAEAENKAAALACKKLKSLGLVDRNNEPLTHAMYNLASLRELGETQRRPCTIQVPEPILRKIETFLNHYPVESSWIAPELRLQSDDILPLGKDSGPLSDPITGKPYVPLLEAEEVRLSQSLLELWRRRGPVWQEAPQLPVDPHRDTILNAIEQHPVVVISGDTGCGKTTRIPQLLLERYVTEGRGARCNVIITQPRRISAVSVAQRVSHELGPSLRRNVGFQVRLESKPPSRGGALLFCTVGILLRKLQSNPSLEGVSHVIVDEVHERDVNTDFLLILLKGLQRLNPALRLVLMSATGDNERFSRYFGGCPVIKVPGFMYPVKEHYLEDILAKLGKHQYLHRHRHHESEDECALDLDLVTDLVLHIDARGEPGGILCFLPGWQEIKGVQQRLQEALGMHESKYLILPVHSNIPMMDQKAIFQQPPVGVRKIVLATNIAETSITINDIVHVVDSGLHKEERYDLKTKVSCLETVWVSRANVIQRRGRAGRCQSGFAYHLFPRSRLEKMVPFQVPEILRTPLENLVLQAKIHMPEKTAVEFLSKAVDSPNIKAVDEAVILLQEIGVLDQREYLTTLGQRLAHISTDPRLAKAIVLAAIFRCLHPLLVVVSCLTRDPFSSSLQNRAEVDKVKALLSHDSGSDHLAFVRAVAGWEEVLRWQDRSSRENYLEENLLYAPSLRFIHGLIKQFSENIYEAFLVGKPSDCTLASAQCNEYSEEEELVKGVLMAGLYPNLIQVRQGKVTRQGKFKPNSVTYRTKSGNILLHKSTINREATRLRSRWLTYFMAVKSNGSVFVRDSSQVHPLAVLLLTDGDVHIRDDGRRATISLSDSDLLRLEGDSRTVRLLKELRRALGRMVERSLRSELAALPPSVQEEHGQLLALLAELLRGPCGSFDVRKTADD

[2] = molecular target: Ribosomal protein S6 kinase alpha-5 (Homo sapiens, UniProt O75582)
[3] = molecular target: Serine/threonine-protein kinase 10 (Homo sapiens, UniProt O94804)
Sequence of Serine/threonine-protein kinase 10 (O94804 whole entry): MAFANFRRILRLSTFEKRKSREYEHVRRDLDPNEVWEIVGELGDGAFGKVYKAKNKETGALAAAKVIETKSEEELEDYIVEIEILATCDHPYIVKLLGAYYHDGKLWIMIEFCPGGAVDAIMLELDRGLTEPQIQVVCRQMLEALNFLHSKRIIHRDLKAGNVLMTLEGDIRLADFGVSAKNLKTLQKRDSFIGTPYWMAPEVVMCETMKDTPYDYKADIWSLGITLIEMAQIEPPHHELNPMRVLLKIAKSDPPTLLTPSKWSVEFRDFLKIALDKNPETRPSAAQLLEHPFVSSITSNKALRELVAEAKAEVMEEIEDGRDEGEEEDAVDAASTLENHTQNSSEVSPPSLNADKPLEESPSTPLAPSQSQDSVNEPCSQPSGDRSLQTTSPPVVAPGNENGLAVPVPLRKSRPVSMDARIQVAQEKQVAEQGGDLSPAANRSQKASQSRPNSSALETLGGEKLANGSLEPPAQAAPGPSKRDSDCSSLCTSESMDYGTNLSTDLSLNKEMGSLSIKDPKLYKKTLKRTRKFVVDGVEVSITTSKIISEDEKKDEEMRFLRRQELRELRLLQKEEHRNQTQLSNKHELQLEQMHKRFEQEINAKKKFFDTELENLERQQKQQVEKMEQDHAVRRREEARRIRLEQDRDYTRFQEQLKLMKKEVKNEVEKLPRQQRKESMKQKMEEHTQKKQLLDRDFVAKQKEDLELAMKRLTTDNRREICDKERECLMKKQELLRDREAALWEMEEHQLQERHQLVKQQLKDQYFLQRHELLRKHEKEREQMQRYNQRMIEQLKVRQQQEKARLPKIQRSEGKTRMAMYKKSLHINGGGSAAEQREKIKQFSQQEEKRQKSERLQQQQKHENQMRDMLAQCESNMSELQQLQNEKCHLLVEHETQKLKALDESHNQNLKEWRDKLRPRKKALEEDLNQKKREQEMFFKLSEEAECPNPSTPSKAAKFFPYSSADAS

[4] = molecular target: Dual specificity mitogen-activated protein kinase kinase 2 (Homo sapiens, UniProt P36507)
Sequence of Dual specificity mitogen-activated protein kinase kinase 2 (P36507 whole entry): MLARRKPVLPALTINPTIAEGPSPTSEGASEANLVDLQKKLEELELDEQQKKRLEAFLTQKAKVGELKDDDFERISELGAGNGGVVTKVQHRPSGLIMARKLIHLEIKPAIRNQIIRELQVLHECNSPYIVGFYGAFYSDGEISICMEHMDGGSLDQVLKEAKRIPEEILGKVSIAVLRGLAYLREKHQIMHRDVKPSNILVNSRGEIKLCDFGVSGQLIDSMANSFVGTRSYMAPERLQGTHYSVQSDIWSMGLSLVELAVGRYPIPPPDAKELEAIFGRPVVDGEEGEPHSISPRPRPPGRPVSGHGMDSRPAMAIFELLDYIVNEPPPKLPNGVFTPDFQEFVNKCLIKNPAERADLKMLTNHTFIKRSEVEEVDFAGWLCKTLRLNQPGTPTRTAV

Septin-9 = molecular target: T2, Septin-9 (Homo sapiens, UniProt Q9UHD8)
T2 sequence (Q9UHD8 whole entry): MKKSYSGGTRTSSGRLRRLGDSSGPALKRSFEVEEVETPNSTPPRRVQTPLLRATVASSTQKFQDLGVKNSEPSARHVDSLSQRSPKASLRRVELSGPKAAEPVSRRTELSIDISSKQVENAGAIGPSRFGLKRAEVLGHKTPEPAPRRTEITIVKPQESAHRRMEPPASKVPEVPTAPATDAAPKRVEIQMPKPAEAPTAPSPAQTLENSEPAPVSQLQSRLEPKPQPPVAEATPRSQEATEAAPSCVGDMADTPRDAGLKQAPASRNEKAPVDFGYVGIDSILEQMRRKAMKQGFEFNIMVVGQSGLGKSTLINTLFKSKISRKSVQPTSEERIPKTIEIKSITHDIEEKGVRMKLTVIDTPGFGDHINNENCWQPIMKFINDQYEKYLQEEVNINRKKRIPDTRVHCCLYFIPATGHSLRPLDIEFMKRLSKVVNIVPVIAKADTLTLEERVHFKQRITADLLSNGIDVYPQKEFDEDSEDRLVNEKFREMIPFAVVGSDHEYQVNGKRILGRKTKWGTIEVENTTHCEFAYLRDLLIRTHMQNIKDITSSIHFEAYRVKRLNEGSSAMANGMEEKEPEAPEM

DNA topoisomerase 2-beta = DNA topoisomerase 2-beta (Homo sapiens, UniProt Q02880)
[5] = molecular target: Mitogen-activated protein kinase 10 (Homo sapiens, UniProt P53779)
[6] = molecular target: Epidermal growth factor receptor (Homo sapiens, UniProt P00533)
Sequence of Epidermal growth factor receptor (P00533 whole entry): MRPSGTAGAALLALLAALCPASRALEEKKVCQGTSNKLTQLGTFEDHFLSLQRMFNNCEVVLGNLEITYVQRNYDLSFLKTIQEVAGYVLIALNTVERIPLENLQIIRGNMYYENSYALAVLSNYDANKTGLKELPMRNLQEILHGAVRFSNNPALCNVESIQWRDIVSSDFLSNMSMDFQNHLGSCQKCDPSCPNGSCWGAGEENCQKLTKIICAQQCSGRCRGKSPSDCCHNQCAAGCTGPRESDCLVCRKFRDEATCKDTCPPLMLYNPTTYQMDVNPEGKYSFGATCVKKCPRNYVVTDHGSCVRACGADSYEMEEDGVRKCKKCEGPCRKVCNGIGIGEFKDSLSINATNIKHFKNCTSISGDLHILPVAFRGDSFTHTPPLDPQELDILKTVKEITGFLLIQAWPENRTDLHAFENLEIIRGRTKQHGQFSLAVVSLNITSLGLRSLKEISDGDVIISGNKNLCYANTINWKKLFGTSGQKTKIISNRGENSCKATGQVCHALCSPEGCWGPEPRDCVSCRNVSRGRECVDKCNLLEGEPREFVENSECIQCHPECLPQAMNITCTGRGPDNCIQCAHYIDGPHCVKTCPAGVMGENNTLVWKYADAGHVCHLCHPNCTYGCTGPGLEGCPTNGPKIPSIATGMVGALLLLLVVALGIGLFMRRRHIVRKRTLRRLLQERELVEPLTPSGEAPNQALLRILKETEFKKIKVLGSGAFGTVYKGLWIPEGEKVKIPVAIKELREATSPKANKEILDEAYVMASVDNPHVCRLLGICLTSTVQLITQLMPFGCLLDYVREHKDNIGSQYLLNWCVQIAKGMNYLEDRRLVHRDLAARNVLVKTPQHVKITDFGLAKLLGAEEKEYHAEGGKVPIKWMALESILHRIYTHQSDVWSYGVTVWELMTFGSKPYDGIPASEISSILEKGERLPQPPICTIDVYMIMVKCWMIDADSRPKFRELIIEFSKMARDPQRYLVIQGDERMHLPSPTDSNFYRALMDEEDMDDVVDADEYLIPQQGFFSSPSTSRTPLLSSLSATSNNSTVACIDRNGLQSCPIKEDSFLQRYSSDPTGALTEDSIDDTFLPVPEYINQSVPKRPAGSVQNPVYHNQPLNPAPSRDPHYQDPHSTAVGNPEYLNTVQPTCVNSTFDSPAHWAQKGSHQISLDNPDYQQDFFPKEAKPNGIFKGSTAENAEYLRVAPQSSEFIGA

[7] = molecular target: Cyclin-dependent kinase 17 (Homo sapiens, UniProt Q00537)
[8] = molecular target: NADH dehydrogenase [ubiquinone] 1 alpha subcomplex subunit 13 (Homo sapiens, UniProt Q9P0J0)
Sequence of NADH dehydrogenase [ubiquinone] 1 alpha subcomplex subunit 13 (Q9P0J0 whole entry, one chain of several): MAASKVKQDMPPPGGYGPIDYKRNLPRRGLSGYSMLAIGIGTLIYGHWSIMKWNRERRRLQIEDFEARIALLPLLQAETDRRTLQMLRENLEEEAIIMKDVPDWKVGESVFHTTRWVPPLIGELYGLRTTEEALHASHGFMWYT

[9] = molecular target: Chromodomain-helicase-DNA-binding protein 4 (Homo sapiens, UniProt Q14839)
Ephrin type-A receptor 4 = Ephrin type-A receptor 4 (Homo sapiens, UniProt P54764)
Sequence of Ephrin type-A receptor 4 (P54764 whole entry): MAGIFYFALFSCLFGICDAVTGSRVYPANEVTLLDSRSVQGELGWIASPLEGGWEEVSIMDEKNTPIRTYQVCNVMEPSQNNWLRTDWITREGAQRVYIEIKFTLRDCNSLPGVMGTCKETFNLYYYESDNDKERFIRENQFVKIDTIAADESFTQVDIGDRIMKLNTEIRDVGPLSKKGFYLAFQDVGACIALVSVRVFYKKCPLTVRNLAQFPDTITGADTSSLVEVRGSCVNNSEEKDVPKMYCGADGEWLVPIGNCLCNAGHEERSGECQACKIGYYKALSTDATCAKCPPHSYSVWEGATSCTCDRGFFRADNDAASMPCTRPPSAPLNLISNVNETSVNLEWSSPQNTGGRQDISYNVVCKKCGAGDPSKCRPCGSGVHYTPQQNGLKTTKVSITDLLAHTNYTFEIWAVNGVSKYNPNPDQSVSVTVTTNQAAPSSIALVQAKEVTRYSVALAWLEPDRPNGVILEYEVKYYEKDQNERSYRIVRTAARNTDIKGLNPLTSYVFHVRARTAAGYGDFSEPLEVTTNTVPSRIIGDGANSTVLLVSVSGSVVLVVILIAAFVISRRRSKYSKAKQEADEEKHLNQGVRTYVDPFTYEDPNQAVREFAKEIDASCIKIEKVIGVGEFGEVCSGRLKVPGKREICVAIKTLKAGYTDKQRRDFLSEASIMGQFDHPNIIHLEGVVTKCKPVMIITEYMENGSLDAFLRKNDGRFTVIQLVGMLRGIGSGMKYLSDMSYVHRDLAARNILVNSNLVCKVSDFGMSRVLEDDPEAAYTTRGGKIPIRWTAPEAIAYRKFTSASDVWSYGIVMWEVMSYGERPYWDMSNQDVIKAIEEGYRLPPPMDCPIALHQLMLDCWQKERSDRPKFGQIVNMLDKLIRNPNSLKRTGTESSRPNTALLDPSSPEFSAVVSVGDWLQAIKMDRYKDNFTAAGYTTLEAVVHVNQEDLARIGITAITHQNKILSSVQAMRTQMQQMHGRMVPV

[10] = molecular target: Ribosomal protein S6 kinase alpha-3 (Homo sapiens, UniProt P51812)
[11] = molecular target: Serine/threonine-protein kinase/endoribonuclease IRE1 (Homo sapiens, UniProt O75460)
Sequence of Serine/threonine-protein kinase/endoribonuclease IRE1 (O75460 whole entry): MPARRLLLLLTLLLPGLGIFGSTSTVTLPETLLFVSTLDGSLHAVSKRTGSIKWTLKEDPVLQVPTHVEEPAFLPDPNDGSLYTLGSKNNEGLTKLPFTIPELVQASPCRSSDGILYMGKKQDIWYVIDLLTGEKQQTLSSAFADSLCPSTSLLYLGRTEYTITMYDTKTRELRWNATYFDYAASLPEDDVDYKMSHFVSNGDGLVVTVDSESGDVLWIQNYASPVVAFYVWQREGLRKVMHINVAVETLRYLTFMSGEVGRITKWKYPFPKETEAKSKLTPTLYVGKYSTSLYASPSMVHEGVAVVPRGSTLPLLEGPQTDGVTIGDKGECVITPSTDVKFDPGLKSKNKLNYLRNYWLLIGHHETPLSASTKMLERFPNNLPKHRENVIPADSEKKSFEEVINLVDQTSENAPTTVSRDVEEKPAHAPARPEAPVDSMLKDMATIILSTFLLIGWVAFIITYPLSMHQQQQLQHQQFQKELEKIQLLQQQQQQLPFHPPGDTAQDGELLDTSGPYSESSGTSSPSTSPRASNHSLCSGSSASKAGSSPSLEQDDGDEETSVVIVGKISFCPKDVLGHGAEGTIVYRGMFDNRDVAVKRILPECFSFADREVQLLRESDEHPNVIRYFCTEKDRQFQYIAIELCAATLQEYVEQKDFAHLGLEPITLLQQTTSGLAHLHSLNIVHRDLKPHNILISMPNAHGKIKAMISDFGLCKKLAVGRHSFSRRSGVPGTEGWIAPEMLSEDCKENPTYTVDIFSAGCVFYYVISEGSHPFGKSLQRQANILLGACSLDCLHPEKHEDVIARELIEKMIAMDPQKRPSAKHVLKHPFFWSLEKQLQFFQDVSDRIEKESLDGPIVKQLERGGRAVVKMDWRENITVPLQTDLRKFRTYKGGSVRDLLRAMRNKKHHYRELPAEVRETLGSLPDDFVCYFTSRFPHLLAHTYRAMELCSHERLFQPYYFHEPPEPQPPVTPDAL
Note: in the data inactive means no Kd found up to 30 µM.

| Compound | Kd [1] | Kd [2] | Kd [3] | Kd [4] | Kd (Septin-9) | Kd (DNA topoisomerase 2-beta) | Kd [5] | Kd [6] | Kd [7] | Kd [8] | Kd [9] | Kd (Ephrin type-A receptor 4) | Kd [10] | Kd [11] |
| --- | --- | --- | --- | --- | --- | --- | --- | --- | --- | --- | --- | --- | --- | --- |
| CC(=O)c1cnc2ccc(-c3cc(Cl)c(O)c(Cl)c3)nc2c1N[C@H]1CC[C@H](CN(C)C)CC1 | 0.006 µM | 0.298 µM (active) | 0.014 µM (active) | > 30 µM (inactive) | > 30 µM (inactive) | > 30 µM (inactive) | 0.112 µM (active) | > 30 µM (inactive) | > 30 µM (inactive) | > 30 µM (inactive) | > 30 µM (inactive) | – | – | – |
| Cc1nc2cc(-c3nn(C(C)C)c4ncnc(N)c34)ccc2o1 | > 30 µM (inactive) | > 30 µM (inactive) | – | 1.92 µM (active) | > 30 µM (inactive) | > 30 µM (inactive) | > 30 µM (inactive) | > 30 µM (inactive) | > 30 µM (inactive) | > 30 µM (inactive) | > 30 µM (inactive) | > 30 µM (inactive) | > 30 µM (inactive) | > 30 µM (inactive) |
| C=CC(=O)Nc1cc2c(Nc3ccc(F)c(Cl)c3)ncnc2cc1C#CC(C)(C)N1CCN(C)CC1 [AV-412 FREE BASE] | > 30 µM (inactive) | > 30 µM (inactive) | 28.6 µM (active) | > 30 µM (inactive) | > 30 µM (inactive) | > 30 µM (inactive) | > 30 µM (inactive) | 0.01 µM (active) | – | > 30 µM (inactive) | > 30 µM (inactive) | > 30 µM (inactive) | > 30 µM (inactive) | > 30 µM (inactive) |
| Cc1cc(C(=O)NOCCO)c(Nc2ccc(I)cc2F)n(C)c1=O [AZD-8330] | > 30 µM (inactive) | > 30 µM (inactive) | > 30 µM (inactive) | – | > 30 µM (inactive) | > 30 µM (inactive) | > 30 µM (inactive) | > 30 µM (inactive) | > 30 µM (inactive) | > 30 µM (inactive) | > 30 µM (inactive) | > 30 µM (inactive) | > 30 µM (inactive) | > 30 µM (inactive) |
| O=C(Nc1cc(C(F)(F)F)cc(C(F)(F)F)c1)c1cc(Cl)ccc1O [IMD-0354] | – | > 30 µM (inactive) | > 30 µM (inactive) | > 30 µM (inactive) | > 30 µM (inactive) | > 30 µM (inactive) | > 30 µM (inactive) | > 30 µM (inactive) | > 30 µM (inactive) | > 30 µM (inactive) | > 30 µM (inactive) | > 30 µM (inactive) | > 30 µM (inactive) | > 30 µM (inactive) |
| CCCCCCCCCCCCCCCCCCOP(=O)([O-])OC1CC[N+](C)(C)CC1 [PERIFOSINE] | – | > 30 µM (inactive) | > 30 µM (inactive) | > 30 µM (inactive) | > 30 µM (inactive) | > 30 µM (inactive) | > 30 µM (inactive) | > 30 µM (inactive) | > 30 µM (inactive) | > 30 µM (inactive) | > 30 µM (inactive) | > 30 µM (inactive) | > 30 µM (inactive) | > 30 µM (inactive) |

Next, values leading:

| Kd [1] | Kd [2] | Kd [3] | Kd [4] | Kd (Septin-9) | Kd (DNA topoisomerase 2-beta) | Kd [5] | Kd [6] | Kd [7] | Kd [8] | Kd [9] | Kd (Ephrin type-A receptor 4) | Kd [10] | Kd [11] | Compound |
| --- | --- | --- | --- | --- | --- | --- | --- | --- | --- | --- | --- | --- | --- | --- |
| – | > 30 µM (inactive) | > 30 µM (inactive) | > 30 µM (inactive) | > 30 µM (inactive) | > 30 µM (inactive) | > 30 µM (inactive) | > 30 µM (inactive) | > 30 µM (inactive) | > 30 µM (inactive) | > 30 µM (inactive) | > 30 µM (inactive) | > 30 µM (inactive) | > 30 µM (inactive) | CCn1c(C(=O)N(C2CC2)C2CC2)cc2c3c(ncn3C)c(Nc3cc(C)n(C)n3)nc21 [BMS-911543] |
| – | > 30 µM (inactive) | > 30 µM (inactive) | > 30 µM (inactive) | > 30 µM (inactive) | > 30 µM (inactive) | > 30 µM (inactive) | > 30 µM (inactive) | > 30 µM (inactive) | > 30 µM (inactive) | > 30 µM (inactive) | > 30 µM (inactive) | > 30 µM (inactive) | > 30 µM (inactive) | Cc1nc2cc(-n3ncc(C(=O)c4cc5ccccc5[nH]4)c3N)ccc2[nH]1 [FGFR INHIBITOR DEBIO 1347] |
| – | > 30 µM (inactive) | > 30 µM (inactive) | > 30 µM (inactive) | > 30 µM (inactive) | > 30 µM (inactive) | > 30 µM (inactive) | > 30 µM (inactive) | > 30 µM (inactive) | > 30 µM (inactive) | > 30 µM (inactive) | > 30 µM (inactive) | > 30 µM (inactive) | > 30 µM (inactive) | FC(F)(F)c1ccc(/C=C/c2nc(COc3ccc(CCCCn4ccnn4)cc3)co2)cc1 [MUBRITINIB] |
| – | > 30 µM (inactive) | > 30 µM (inactive) | > 30 µM (inactive) | > 30 µM (inactive) | > 30 µM (inactive) | > 30 µM (inactive) | > 30 µM (inactive) | > 30 µM (inactive) | > 30 µM (inactive) | > 30 µM (inactive) | > 30 µM (inactive) | > 30 µM (inactive) | > 30 µM (inactive) | COc1ncc(-c2ccc3nccc(-c4ccnnc4)c3c2)cc1NS(=O)(=O)c1ccc(F)cc1F [OMIPALISIB] |
| – | > 30 µM (inactive) | 0.949 µM (active) | 3.95 µM (active) | > 30 µM (inactive) | > 30 µM (inactive) | > 30 µM (inactive) | 1.47 µM (active) | > 30 µM (inactive) | > 30 µM (inactive) | > 30 µM (inactive) | 0.022 µM (active) | 6 µM (active) | > 30 µM (inactive) | CCS(=O)(=O)c1cccc(-c2cc(C(=O)NC3CCN(C)CC3)c(C)c3[nH]c4ncc(C)cc4c23)c1 [TAK-901] |
| – | > 30 µM (inactive) | > 30 µM (inactive) | > 30 µM (inactive) | > 30 µM (inactive) | > 30 µM (inactive) | > 30 µM (inactive) | > 30 µM (inactive) | > 30 µM (inactive) | > 30 µM (inactive) | > 30 µM (inactive) | > 30 µM (inactive) | > 30 µM (inactive) | > 30 µM (inactive) | O=C1NC(=O)[C@@H](c2cn3c4c(cccc24)CCC3)[C@@H]1c1c[nH]c2ccccc12 [TIVANTINIB] |
| > 30 µM (inactive) | > 30 µM (inactive) | > 30 µM (inactive) | > 30 µM (inactive) | > 30 µM (inactive) | > 30 µM (inactive) | > 30 µM (inactive) | > 30 µM (inactive) | – | – | > 30 µM (inactive) | > 30 µM (inactive) | > 30 µM (inactive) | > 30 µM (inactive) | Cn1ncc(Cl)c1-c1cc(C(=O)N[C@H](CN)Cc2ccc(F)c(F)c2)oc1Cl [UPROSERTIB] |

From ChEMBL document CHEMBL3991601, “The target landscape of clinical kinase drugs” (Science, 2017)
